ChEMBL document CHEMBL5537193, “Multitargeting HDAC Inhibitors Containing a RAS/RAF Protein Interfering Unit” (J Med Chem, 2024)
The source made the active and inactive calls. The rule behind the calls is not given here.

Legend:
MCF7 = test: cells; conditions: Homo sapiens, MCF7, 72 h
Description: Cytotoxicity against human MCF7 cells assessed as inhibition of cell growth incubated for 72 hrs by MTT assay

Histone deacetylase 2 = Histone deacetylase 2 (Homo sapiens, UniProt Q92769); test: Inhibition of HDAC2 (unknown origin)
Histone deacetylase 8 = Histone deacetylase 8 (Homo sapiens, UniProt Q9BY41); test: Inhibition of HDAC8 (unknown origin)
PANC-1 [1] = test: Cell cycle arrest in human PANC-1 cells assessed as accumulation of cells at GO-G1 phase at 2 uM incubated for 24 hrs by PI/RNase staining based flow cytometric analysis; type: functional
HT-29 [2] = test: Antitumor activity against human HT-29 cells xenografted in BALB/c nude mouse assessed as tumor growth inhibition at 7.5 mg/kg, ip administered once a day for 24 days relative to control; type: functional; conditions: HT-29, 576 h, time 24 day, read-out: TGI
[3] = target: Polyamine deacetylase HDAC10 (Homo sapiens, UniProt Q969S8); test: Inhibition of HDAC10 (unknown origin)
Histone deacetylase 1 = Histone deacetylase 1 (Homo sapiens, UniProt Q13547); test: Inhibition of HDAC1 (unknown origin)
A549 = test: cells; conditions: Homo sapiens, A549, 72 h
Description: Cytotoxicity against human A549 cells assessed as inhibition of cell growth incubated for 72 hrs by MTT assay

Histone deacetylase 9 = Histone deacetylase 9 (Homo sapiens, UniProt Q9UKV0); test: Inhibition of HDAC9 (unknown origin)
HT-29 [4] = test: Induction of apoptosis in human HT-29 cells assessed as apoptotic ratio at 2 uM incubated for 24 hrs by flow cytometric analysis; type: functional
Histone deacetylase 5 = Histone deacetylase 5 (Homo sapiens, UniProt Q9UQL6); test: Inhibition of HDAC5 (unknown origin)
PANC-1 [5] = test: Induction of apoptosis in human PANC-1 cells assessed as increase in cleaved caspase-9 expression level at 2 uM incubated for 24 hrs by Western blot analysis; type: functional, cell-based
L02 = test: cells; conditions: Homo sapiens, L02, 72 h
Description: Cytotoxicity against human L02 cells assessed as inhibition of cell growth incubated for 72 hrs by MTT assay

Histone deacetylase 11 = Histone deacetylase 11 (Homo sapiens, UniProt Q96DB2); test: Inhibition of HDAC11 (unknown origin)
HT-29 [6] = test: cells; conditions: Homo sapiens, HT-29, 72 h
Description: Cytotoxicity against human HT-29 cells assessed as inhibition of cell growth incubated for 72 hrs by MTT assay

Histone deacetylase 7 = Histone deacetylase 7 (Homo sapiens, UniProt Q8WUI4); test: Inhibition of HDAC7 (unknown origin)
K562 = test: cells; conditions: Homo sapiens, K562, 72 h
Description: Cytotoxicity against human K562 cells assessed as inhibition of cell growth incubated for 72 hrs by MTT assay

Histone deacetylase 3 = Histone deacetylase 3 (Homo sapiens, UniProt O15379); test: Inhibition of HDAC3 (unknown origin)
PANC-1 [7] = test: Induction of apoptosis in human PANC-1 cells assessed as increase in Cytochrome C expression level at 2 uM incubated for 24 hrs by Western blot analysis; type: functional, cell-based
PANC-1 [8] = test: Induction of apoptosis in human PANC-1 cells assessed as increase in cleaved caspase-3 expression level at 2 uM incubated for 24 hrs by Western blot analysis; type: functional, cell-based
PANC-1 [9] = test: Induction of apoptosis in human PANC-1 cells assessed as increase in cleaved PARP expression level at 2 uM incubated for 24 hrs by Western blot analysis; type: functional, cell-based
PANC-1 [10] = test: Induction of apoptosis in human PANC-1 cells assessed as apoptotic cells at 2 uM incubated for 24 hrs by flow cytometric analysis relative to control; type: functional
SGC-7901 = test: cells; conditions: Homo sapiens, SGC-7901, 72 h
Description: Cytotoxicity against human SGC-7901 cells assessed as inhibition of cell growth incubated for 72 hrs by MTT assay

Histone deacetylase 4 = Histone deacetylase 4 (Homo sapiens, UniProt P56524); test: Inhibition of HDAC4 (unknown origin)
PANC-1 [11] = test: cells; conditions: Homo sapiens, PANC-1, 72 h
Description: Cytotoxicity against human PANC-1 cells assessed as inhibition of cell growth incubated for 72 hrs by MTT assay

A-431 = test: cells; conditions: Homo sapiens, A-431, 72 h
Description: Cytotoxicity against human A-431 cells assessed as inhibition of cell growth incubated for 72 hrs by MTT assay

PANC-1 [12] = test: Induction of apoptosis in human PANC-1 cells assessed as increase in Bax expression at 2 uM incubated for 24 hrs by Western blot analysis; type: functional, cell-based
HT-29 [13] = test: Antitumor activity against human HT-29 cells xenografted in BALB/c nude mouse assessed as tumor growth inhibition at 7.5 mg/kg, ip administered once a day for 24 days in presence of SAHA relative to control; type: functional; conditions: HT-29, 576 h, time 24 day, read-out: TGI
NCI-H1975 = test: cells; conditions: Homo sapiens, NCI-H1975, 72 h
Description: Cytotoxicity against human NCI-H1975 cells assessed as inhibition of cell growth incubated for 72 hrs by MTT assay

[14] = target: Protein deacetylase HDAC6 (Homo sapiens, UniProt Q9UBN7); test: Inhibition of HDAC6 (unknown origin)
MV4-11 = test: cells; conditions: Homo sapiens, MV4-11, 72 h
Description: Cytotoxicity against human MV4-11 cells assessed as inhibition of cell growth incubated for 72 hrs by MTT assay

HepG2 = test: cells; conditions: Homo sapiens, HepG2, 72 h
Description: Cytotoxicity against human HepG2 cells assessed as inhibition of cell growth incubated for 72 hrs by MTT assay

Sequence of Histone deacetylase 9 (Q9UKV0 whole entry): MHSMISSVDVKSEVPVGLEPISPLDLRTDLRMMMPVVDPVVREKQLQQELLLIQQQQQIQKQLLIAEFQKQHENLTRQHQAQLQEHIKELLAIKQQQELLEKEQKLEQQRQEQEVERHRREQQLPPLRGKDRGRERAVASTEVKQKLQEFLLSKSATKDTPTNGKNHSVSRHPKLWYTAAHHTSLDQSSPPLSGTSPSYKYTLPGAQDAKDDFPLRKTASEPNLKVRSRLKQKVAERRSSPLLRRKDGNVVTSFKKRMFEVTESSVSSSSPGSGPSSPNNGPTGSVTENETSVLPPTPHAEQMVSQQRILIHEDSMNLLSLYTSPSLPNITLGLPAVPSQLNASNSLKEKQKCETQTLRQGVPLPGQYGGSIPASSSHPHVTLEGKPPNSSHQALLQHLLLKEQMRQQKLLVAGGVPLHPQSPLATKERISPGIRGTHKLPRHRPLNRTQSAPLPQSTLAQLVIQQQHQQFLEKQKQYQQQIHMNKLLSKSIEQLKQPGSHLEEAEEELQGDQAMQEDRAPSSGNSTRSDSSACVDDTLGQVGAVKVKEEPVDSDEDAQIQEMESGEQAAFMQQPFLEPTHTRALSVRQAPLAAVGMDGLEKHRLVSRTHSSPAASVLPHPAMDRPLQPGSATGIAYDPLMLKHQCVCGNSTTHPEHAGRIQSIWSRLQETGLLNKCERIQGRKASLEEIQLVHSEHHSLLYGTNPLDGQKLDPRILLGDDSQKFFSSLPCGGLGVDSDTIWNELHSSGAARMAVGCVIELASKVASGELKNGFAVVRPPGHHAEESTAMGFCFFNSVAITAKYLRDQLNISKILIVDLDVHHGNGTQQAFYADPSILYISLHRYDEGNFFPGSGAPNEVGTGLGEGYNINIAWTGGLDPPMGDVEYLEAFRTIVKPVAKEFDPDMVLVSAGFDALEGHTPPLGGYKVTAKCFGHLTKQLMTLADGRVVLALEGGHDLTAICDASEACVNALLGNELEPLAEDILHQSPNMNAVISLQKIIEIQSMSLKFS
Sequence of Polyamine deacetylase HDAC10 (Q969S8 whole entry): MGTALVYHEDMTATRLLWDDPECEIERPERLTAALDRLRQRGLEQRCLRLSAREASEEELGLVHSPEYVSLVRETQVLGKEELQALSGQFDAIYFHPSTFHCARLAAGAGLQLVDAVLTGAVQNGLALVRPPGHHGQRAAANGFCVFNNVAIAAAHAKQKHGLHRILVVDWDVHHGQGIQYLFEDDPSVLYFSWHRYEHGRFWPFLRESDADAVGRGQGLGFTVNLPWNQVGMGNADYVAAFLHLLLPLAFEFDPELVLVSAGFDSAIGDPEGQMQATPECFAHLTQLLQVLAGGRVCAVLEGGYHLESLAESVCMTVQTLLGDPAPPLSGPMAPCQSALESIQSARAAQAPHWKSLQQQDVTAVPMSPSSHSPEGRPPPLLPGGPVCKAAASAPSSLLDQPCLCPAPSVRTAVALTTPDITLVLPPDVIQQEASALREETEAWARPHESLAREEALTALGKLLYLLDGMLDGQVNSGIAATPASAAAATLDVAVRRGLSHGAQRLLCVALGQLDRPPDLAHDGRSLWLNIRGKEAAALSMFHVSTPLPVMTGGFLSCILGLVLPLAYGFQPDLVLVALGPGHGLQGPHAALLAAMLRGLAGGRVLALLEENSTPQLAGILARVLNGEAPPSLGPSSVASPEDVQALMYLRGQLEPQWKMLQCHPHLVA
Sequence of Protein deacetylase HDAC6 (Q9UBN7 whole entry): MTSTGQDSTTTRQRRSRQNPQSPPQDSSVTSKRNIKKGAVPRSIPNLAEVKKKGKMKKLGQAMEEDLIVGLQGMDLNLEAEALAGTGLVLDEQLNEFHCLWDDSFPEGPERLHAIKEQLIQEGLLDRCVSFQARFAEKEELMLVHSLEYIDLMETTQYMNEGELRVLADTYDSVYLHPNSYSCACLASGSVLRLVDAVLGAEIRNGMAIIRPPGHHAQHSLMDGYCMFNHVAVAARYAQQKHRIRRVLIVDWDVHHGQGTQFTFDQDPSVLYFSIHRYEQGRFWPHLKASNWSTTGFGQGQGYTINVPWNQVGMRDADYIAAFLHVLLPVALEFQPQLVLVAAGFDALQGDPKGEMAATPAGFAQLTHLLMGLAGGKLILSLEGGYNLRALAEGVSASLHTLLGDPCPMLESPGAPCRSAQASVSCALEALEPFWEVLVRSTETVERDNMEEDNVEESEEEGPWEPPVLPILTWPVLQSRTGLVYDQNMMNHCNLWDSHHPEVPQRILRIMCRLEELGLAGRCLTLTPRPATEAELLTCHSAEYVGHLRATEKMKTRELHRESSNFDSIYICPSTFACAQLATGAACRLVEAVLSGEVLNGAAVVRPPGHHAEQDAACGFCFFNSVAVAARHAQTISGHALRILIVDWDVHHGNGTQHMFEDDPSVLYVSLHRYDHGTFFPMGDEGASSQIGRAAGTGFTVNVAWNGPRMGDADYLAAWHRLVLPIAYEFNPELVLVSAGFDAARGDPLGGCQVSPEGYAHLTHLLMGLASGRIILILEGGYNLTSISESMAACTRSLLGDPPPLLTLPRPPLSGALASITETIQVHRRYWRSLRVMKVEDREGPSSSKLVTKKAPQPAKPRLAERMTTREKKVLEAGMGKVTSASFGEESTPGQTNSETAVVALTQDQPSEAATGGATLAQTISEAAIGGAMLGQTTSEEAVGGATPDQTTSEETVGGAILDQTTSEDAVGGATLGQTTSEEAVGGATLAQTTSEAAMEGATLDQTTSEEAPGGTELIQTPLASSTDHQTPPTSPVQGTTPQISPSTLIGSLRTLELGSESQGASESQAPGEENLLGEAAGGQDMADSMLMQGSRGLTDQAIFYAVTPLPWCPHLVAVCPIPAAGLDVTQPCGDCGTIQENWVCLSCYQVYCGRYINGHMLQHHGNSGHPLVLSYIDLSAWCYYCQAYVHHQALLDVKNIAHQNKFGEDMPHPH
Sequence of Histone deacetylase 5 (Q9UQL6 whole entry): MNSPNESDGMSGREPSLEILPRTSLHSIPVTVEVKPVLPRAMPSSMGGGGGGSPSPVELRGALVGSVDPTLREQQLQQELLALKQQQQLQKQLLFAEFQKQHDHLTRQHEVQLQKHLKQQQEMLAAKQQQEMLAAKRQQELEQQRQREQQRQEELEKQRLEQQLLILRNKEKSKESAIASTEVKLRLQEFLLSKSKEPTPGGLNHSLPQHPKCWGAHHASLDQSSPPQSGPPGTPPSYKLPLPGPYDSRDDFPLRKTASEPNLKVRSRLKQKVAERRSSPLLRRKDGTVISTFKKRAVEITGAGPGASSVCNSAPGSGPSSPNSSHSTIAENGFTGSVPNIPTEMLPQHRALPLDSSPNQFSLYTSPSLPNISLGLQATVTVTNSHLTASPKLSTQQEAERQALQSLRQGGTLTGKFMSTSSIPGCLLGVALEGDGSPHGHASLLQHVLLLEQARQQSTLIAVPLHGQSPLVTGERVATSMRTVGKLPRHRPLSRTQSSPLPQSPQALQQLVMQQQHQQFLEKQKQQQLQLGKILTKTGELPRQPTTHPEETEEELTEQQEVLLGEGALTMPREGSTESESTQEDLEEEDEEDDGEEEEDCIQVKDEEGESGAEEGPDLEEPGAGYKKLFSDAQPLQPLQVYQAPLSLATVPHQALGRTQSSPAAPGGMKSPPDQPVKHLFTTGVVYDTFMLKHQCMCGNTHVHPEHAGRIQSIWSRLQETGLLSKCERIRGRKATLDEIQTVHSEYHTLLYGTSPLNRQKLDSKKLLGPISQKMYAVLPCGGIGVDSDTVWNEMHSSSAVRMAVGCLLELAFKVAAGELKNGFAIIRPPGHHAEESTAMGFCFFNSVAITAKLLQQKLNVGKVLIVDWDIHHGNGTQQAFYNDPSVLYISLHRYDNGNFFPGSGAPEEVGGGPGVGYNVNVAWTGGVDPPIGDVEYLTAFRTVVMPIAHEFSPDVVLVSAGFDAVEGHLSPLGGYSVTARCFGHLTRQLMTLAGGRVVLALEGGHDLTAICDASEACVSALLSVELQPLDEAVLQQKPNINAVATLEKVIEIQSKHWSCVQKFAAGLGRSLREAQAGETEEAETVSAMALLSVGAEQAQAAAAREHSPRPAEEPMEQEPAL
Sequence of Histone deacetylase 4 (P56524 whole entry): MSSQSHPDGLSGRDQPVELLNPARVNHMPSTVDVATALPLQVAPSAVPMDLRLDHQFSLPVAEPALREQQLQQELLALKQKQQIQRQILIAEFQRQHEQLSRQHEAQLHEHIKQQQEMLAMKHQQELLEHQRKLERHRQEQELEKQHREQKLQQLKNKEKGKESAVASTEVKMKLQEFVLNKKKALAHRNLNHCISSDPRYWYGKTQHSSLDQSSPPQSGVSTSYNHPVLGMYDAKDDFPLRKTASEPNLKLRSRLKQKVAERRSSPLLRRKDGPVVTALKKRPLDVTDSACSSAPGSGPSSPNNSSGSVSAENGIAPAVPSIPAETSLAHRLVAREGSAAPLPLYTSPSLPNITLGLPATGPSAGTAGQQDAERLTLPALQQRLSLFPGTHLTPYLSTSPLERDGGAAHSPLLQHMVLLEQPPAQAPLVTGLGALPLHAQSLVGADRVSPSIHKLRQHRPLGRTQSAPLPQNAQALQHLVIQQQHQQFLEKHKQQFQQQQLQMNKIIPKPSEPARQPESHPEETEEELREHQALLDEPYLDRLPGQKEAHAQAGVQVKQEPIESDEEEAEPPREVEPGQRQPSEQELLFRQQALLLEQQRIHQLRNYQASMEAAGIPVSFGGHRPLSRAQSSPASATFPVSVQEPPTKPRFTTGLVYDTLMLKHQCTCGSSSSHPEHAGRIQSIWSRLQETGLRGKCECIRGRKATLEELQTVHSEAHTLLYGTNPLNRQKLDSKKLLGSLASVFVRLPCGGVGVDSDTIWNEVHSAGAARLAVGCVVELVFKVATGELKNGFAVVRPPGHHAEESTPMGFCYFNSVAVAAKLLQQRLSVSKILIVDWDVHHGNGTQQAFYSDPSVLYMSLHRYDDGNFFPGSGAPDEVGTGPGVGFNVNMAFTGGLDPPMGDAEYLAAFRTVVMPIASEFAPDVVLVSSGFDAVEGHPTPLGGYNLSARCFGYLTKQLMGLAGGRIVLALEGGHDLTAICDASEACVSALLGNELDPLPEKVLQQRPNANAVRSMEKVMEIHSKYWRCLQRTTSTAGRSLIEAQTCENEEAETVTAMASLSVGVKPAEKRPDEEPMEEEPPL

In the case of `COc1cc(OC)c(/C=C/S(=O)(=O)Cc2ccc(OC)c(NCC(=O)O)c2)c(OC)c1` [RIGOSERTIB], the IC50 (MCF7) is reported as 260 nM, the IC50 (Histone deacetylase 2) is reported as greater than 10000 nM and the IC50 (Histone deacetylase 8) is reported as greater than 10000 nM. For the same compound, the Activity (PANC-1 [1]) was “Active”, the inhibition in vivo at 7.5 mg/kg (HT-29 [2]) was 46% and the IC50 [3] was greater than 10000 nM. The IC50 (Histone deacetylase 1) was greater than 10000 nM, the IC50 (A549) was 370 nM and the IC50 (Histone deacetylase 9) was greater than 10000 nM. The Activity (HT-29 [4]) was 34.8%, the IC50 (Histone deacetylase 5) was greater than 10000 nM and the Activity (PANC-1 [5]) was “Active”. The IC50 (L02) was greater than 40000 nM, the IC50 (Histone deacetylase 11) was greater than 10000 nM and the IC50 (HT-29 [6]) was 160 nM. It also gave an IC50 (Histone deacetylase 7) greater than 10000 nM, an IC50 (K562) of 150 nM and an IC50 (Histone deacetylase 3) greater than 10000 nM. The Activity (PANC-1 [7]) was “Active”, the Activity (PANC-1 [8]) was “Active” and the Activity (PANC-1 [9]) was “Active”. The Activity (PANC-1 [10]) was 41.4%, the IC50 (SGC-7901) was 250 nM and the IC50 (Histone deacetylase 4) was greater than 10000 nM. For the same compound, the IC50 (PANC-1 [11]) was 260 nM, the IC50 (A-431) was 360 nM and the Activity (PANC-1 [12]) was “Active”. It also gave an inhibition in vivo at 7.5 mg/kg (HT-29 [13]) of 77.9%, an IC50 (NCI-H1975) of 230 nM and an IC50 [14] greater than 10000 nM. For the same compound, the IC50 (MV4-11) was 1150 nM and the IC50 (HepG2) was 1340 nM.
